According to patent US20120035180A1, “PHARMACEUTICAL COMPOSITION FOR TREATING CANCER COMPRISING CHLORIN E6-FOLIC ACID CONJUGATE COMPOUND AND CHITOSAN” (priority 2009, published 2012):

How the values were obtained:
Hela cells [1] = assay: Competition assay with exogenous folic acid in Hela cells; format: cell-based; conditions: 4 μM/l folic acid, 24 hours
Text: Then, the sample was centrifuged, the supernatant was taken, and the pellet was rewashed with cooled Hank's solution. The obtained pellet was again transferred into Hank's solution.

HeLa cell culture = assay: Phototoxicity (photodynamic activity), 3.5 h incubation, 3.3 joule/cm^2; format: cell-based; design: number of HELA cells (relative to the control): unit not given here; conditions: for number of HELA cells (relative to the control): incubation 3.5 hours
Experimental: To examine the photodynamic effects of a photosensitizer on a HeLa cell culture, the photosensitizer solution was added to the nutrient media at a final concentration of 0.1, 0.5, 1.0, 5.0 or 10 mcg/ml on day 3 after transplanting the cell culture into flasks. The flasks were wrapped with a light protecting cover, and incubated at 37° C. for 3.5 hours. Then, the cells were washed with Hank's solution, and exposed on ice by a laser medical device “LD 680-2000” (wavelength: 670-690 nm) at a dose of 3.3 joule/cm^2. After 20-24 hours, the available cell monolayer was dispersed using a 0.02%-Versene solution, and the number of tumor cells was calculated in Goriaev's chamber. For each point, 3 flasks were used.

[2] = Photophysical parameters (triplet state, intercombinative conversion); format: physicochemical
Experimental: Values of ? and ? were determined after substantially transferring of all molecules of the studied substance in excited triplet state. In such conditions, ΔD=C Δε^Tl, wherein C indicates the molar concentration of the substance in solution, and l indicates the length of the optical way. As the standard to estimate γ, Pd(II)-octa ethyl porphyrin (Pd(II)-OEP) was selected, for which the γ value in benzol was considered as equal to one.

sarcoma M-1 = assay: Necrotic area in sarcoma M-1 after PDT; format: in vivo, rats; conditions: 10.0 mg/kg, 1 hr exposure after application
Experimental: After fixation, transverse sections of the tumor nodule in its highest diameter were made, and pictures were taken by a camera connected to a computer.
For quantitative assessment of necroses formed after PDT, computer analysis of color tints of histo-topographic tumor slides was performed using a special program.
The program included an algorithm of blue color identification (Evans blue), which stained viable areas of the tumor. Tumor areas killed from direct cytotoxic effect or due to structural-functional disorders of microcirculation were not stained in blue. The ratio of all non-stained dots to the total amount of dots in the fence of the tumor slide was considered to be the destruction efficiency.
For this purpose, a laser medical instrument “ ? 680-2000” (BIOSPEC, Moscow) was used to perform the exposure at a wavelength of 670 nm in a dose of 100 J/cm^2. The power density was 0.51 W/cm^2, the output power was 0.4 W, and the spot light diameter was 1 cm. Time of exposure was […]. Monitoring over radiating power was conducted by a universal power meter included in the laser device “ ? 680-2000”.

Hela cells [3] = assay: Phototoxicity, 24 h incubation, 1.5-15 joule/cm^2; format: cell-based; conditions: 670-690 nm
Experimental: In other experiment, the cells were incubated with photosensitizers at 37° C. for 24 hours, and irradiated by exposed on ice by a laser medical device “LD 680-2000” (wavelength of 670-690 nm) in a dose of 1.5-15 joule/cm^2.

[4] = Spectral and fluorescent parameters of chlorin e6 conjugate in different systems; format: physicochemical
Experimental: Pigment-protein complexes have been formed by adding to the solution of human serum albumin (HAS) a specific amount of photosensitizer dissolved in the same buffer. […] Similarly, the photosensitizer was included in detergent micelle (Triton X-100, C=10^−3M).
The electronic absorption spectra of the subject solution were recorded on Specord UV-Vis. The fluorescence spectra and value of degree of fluorescence polarization (P) were recorded on an automatic spectrofluorimeter (Institute of Physics). Life time of photosensitizer fluorescence (ts) was estimated using an impulse fluorometer operating in the mode of photons counting.
The main feature of the absorption spectrum is intensive (ε=4.8 10^4 M^−1cm^−1) Qx (0-0) band at 660 nm, which falls into the spectral window of the majority of biological tissues.
Complex formation of chlorin e6 conjugate, and HSA, liposomes or detergent micelles leads to bathochromic shift in the absorption and fluorescence spectra of pigment. However, an increase in fluorescence photoresponse (B) was observed, which correlates with the growth of life time (ts) without changing of the Kravec integral value.

Substance: [γ-(6-aminohexyl)folic acid]-chlorin e6 [chlorin e6 conjugate]
- effect of free folic acid on uptake in Hela cells (Hela cells [1]): significantly reduced
- inhibition of proliferation of Hela cells (HeLa cell culture; concentration of 5-10 mcg/ml, photoexposure): fully inhibited
- number of HELA cells (relative to the control) (HeLa cell culture; photoexposure 3.3 joule/cm^2, conc. 0.1 mcg/ml): 65.1
- number of HELA cells (relative to the control) (HeLa cell culture; photoexposure 3.3 joule/cm^2, conc. 0.5 mcg/ml): 42.3
- number of HELA cells (relative to the control) (HeLa cell culture; photoexposure 3.3 joule/cm^2, conc. 1.0 mcg/ml): 12.6
- number of HELA cells (relative to the control) (HeLa cell culture; photoexposure 3.3 joule/cm^2, conc. 5.0 mcg/ml): 0.1
- τt (lifetime of excited triplet state, oxygen saturated) ([2]; H2O, pH 8.1): 2.5 μs
- τt^0 (lifetime of excited triplet state, deoxygenated) ([2]; H2O, pH 8.1): 170 μs
- τt (lifetime of excited triplet state, oxygen saturated) ([2]; HSA, H2O, pH 8.1): 14.7 μs
- τt^0 (lifetime of excited triplet state, deoxygenated) ([2]; HSA, H2O, pH 8.1): 700 μs
- τt (lifetime of excited triplet state, oxygen saturated) ([2]; Liposomes, H2O, pH 8.1): 1.4 μs
- τt^0 (lifetime of excited triplet state, deoxygenated) ([2]; Liposomes, H2O, pH 8.1): 70 μs
- γ (photoresponse of intercombinative conversion) ([2]; Liposomes, H2O, pH 8.1, standard Pd(II)-OEP): 078
- τt (lifetime of excited triplet state, oxygen saturated) ([2]; Pyridine): 0.3 μs
- τt^0 (lifetime of excited triplet state, deoxygenated) ([2]; Pyridine): 140 μs
- τt (lifetime of excited triplet state, oxygen saturated) ([2]; Triton X-100): 2.6 μs
- τt^0 (lifetime of excited triplet state, deoxygenated) ([2]; Triton X-100): 230 μs
- anti-tumor effect of PDT (sarcoma M-1): most prominent anti-tumor effect
- phototoxicity / photosensitivity in survival test (Hela cells [3]): improved the photosensitivity
- 1^00fl ([4]; Dimethyl sulfoxide): 672 nm
- absorption maximum wavelength (Qx 0-0 band) ([4]; Dimethyl sulfoxide): 661 Nm
- 1^00fl ([4]; H2O, pH 8.1): 664 nm
- absorption maximum wavelength (Qx 0-0 band) ([4]; H2O, pH 8.1): 657 Nm
- 1^00fl ([4]; HSA, pH 8.1): 669 nm
- absorption maximum wavelength (Qx 0-0 band) ([4]; HSA, pH 8.1): 664 Nm
- 1^00fl ([4]; Liposomes, pH 8.1): 670 nm
- absorption maximum wavelength (Qx 0-0 band) ([4]; Liposomes, pH 8.1): 665 Nm
- 1^00fl ([4]; Methanol): 667 nm
- absorption maximum wavelength (Qx 0-0 band) ([4]; Methanol): 662 Nm
- 1^00fl ([4]; Pyridine): 673 nm
- absorption maximum wavelength (Qx 0-0 band) ([4]; Pyridine): 666 Nm
- 1^00fl ([4]; Tetrahydrofuran): 673 nm
- absorption maximum wavelength (Qx 0-0 band) ([4]; Tetrahydrofuran): 667 Nm
- 1^00fl ([4]; Triton X-100, pH 8.1): 670 nm
- absorption maximum wavelength (Qx 0-0 band) ([4]; Triton X-100, pH 8.1): 665 Nm
